Values joined by “and” are separate entries in the source; they are usually repeats but may differ in a detail not shown here. Equal values may be shown once. Read-outs that look alike come from different tables or passages of the source.

Test [1] concerns picornavirus and norovirus M^pros (PV, HRV, EV71, NV). Type of test: biochemical, poliovirus, human rhinovirus, enterovirus A71. The conditions noted are these: cross-test against PV, EV71 and NV M^pro, 500 nM enzyme, Bis-Tris pH 7.6, 37 °C.
In test [2] the target is HRV M^pro (Human rhinovirus 14, UniProt P03303). Format: biochemical. Conditions: 500 nM enzyme, substrate 6-850 μM; for vmax: Fig. S29 Michaelis-Menten fit; for vmax / catalytic efficiency (kcat/KM): Bis-Tris pH 7.6, 37 °C; for Km: Table 7, 20 mM Bis-Tris pH 7.6, 1 mM DTT, 0.02% Tween-20, 37 °C, read 60 min; for catalytic efficiency (kcat/KM): Table 8.
Test [3] has as its target EV71 M^pro (Human enterovirus 71, UniProt Q66478). Format: biochemical, enterovirus A71 (EV71). The conditions noted are these: 500 nM enzyme, substrate 6-850 μM; for catalytic efficiency (kcat/KM): Table 8.
The target of test [4] is NV M^pro (Norovirus, UniProt Q83883). Format: biochemical. The conditions noted are these: 500 nM enzyme, substrate 6-850 μM; for catalytic efficiency (kcat/KM): Table 8.
Test [5] concerns the target Polio M^pro (Poliovirus type 1, UniProt P03300). The conditions noted are these: pH 7.6.
For test [6], the system named is PEDV M^pro. Format: biochemical, porcine epidemic diarrhea virus (PEDV). Conditions: for K M / Km / vmax: pH 7.6.
The subject of test [7] is EqCoV M^pro. Format: biochemical, equine coronavirus (EqCoV). Conditions: pH 7.6.
The subject of test [8] is coronavirus M^pros (SARS-CoV-2, FIPV, PEDV, EqCoV). Type of test: biochemical.
Test [9] has as its target T1, SARS-CoV-2 M^pro (Severe acute respiratory syndrome coronavirus 2, UniProt P0DTD1).
Test [10] concerns the target FIPV M^pro (Feline coronavirus, UniProt Q98VG9). Type of test: biochemical, feline infectious peritonitis virus (FIPV). Conditions: pH 7.6.
The target of test [11] is T1, SARS-CoV-2 M^pro. The conditions noted are these: pH 7.6.
In test [12] the test system is coronaviral M^pros (SARS-CoV-2, FIPV, PEDV, EqCoV). Type of test: biochemical.
Where [13] appears, read: Fig. S31 Michaelis-Menten fit, Bis-Tris pH 7.6, 37 °C.
Where [14] appears, read: Table 7, 20 mM Bis-Tris pH 7.6, 1 mM DTT, 0.02% Tween-20, 37 °C, read 60 min.
The mark [15] stands for this setting: Fig. S32 Michaelis-Menten fit, Bis-Tris pH 7.6, 37 °C.

Chain of EV71 M^pro (Q66478 1549-1731 limits assumed): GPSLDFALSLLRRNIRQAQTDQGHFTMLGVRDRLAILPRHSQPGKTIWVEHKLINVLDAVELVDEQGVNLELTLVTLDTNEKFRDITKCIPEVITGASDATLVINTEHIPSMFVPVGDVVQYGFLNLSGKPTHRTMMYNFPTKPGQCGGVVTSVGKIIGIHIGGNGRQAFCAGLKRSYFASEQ
Chain of NV M^pro (Q83883 1101-1281 limits assumed): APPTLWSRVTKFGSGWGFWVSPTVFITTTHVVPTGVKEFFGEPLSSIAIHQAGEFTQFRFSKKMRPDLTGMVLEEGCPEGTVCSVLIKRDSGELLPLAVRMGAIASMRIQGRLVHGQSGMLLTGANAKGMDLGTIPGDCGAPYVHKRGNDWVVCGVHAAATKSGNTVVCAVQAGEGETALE
Chain of Polio M^pro (P03300 1566-1748 limits assumed): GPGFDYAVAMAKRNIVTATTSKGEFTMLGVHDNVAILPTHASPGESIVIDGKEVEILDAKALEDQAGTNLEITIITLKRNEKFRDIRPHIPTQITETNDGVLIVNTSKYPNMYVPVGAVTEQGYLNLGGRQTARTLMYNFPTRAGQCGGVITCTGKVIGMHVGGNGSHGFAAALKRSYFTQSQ
Chain of HRV M^pro (P03303 1538-1719 limits assumed): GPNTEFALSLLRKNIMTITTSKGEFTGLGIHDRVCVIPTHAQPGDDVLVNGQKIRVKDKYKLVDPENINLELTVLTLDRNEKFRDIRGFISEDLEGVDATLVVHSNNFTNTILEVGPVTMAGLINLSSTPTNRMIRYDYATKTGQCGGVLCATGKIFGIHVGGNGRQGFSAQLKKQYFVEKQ
Chain of FIPV M^pro (Q98VG9 2904-3205 limits assumed): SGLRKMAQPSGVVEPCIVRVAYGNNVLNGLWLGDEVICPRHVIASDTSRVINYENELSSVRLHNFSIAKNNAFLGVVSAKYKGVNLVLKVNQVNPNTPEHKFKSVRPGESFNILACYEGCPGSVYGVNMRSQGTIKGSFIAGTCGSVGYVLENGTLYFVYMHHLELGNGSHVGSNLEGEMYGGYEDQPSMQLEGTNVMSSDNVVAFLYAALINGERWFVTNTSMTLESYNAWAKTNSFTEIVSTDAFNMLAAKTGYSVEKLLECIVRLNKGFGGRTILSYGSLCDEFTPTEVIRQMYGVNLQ

For the compound “2-Abz-DFHLQ↓GPY^(NO2)R [NPFRET, shorter, truncated consensus substrate proposed in the literature, reference compound]”, the “recognition of substrate by picornaviral and noroviral main proteases” value in [1] is “lack of binding”.
For 2-Abz-EALFQ↓GPPKY^(NO2)R [EV71FRET], the vmax in test [2] turned out to be 0.7709 ± 0.08 µM/s; in [3] (setting [13]), 1.029 ± 0.13 µM/s; in test [4] (setting [15]) it was 1.410 ± 0.16 µM/s; in [5], 1.366 ± 0.30 µM/s. Besides, the Km in test [2] was 480 ± 80 µM; in test [3] (setting [13]), 1640 µM; in test [3] (setting [14]) it was 1640 ± 261 µM; in [4] (setting [15]), 622 µM; in test [4] (setting [14]), 620 ± 153 µM; in test [5], 1140 µM and 1110 µM. The “catalytic efficiency (kcat/KM)” value is 3200 ± 405 M⁻¹ s⁻¹ in test [2]; 1300 ± 138 M⁻¹ s⁻¹ in test [3] (Bis-Tris pH 7.6, 37 °C); 4500 ± 515 M⁻¹ s⁻¹ in test [4] (Bis-Tris pH 7.6, 37 °C); 2700 ± 315 M⁻¹ s⁻¹ in [5]. The “recognition of substrate by picornaviral and noroviral main proteases” value in test [1] is on record as “somewhat more promiscuous”.
For the compound 2-Abz-EFQLQ↓GKMYDY^(NO2)R [NVFRET], the Km amounted to 1100 µM in test [3] (setting [13]), 1100 ± 201 µM in [3] (setting [14]) and 613 ± 188 µM in test [4] (setting [14]). The vmax worked out at 1.914 ± 0.29 µM/s in test [3] (setting [13]), 0.4163 ± 0.08 µM/s in [4] (setting [15]) and 4.136 ± 1.36 µM/s in test [5]. Moreover, the “catalytic efficiency (kcat/KM)” value in test [3] (Bis-Tris pH 7.6, 37 °C) was 3400 ± 455 M⁻¹ s⁻¹; in [4] (Bis-Tris pH 7.6, 37 °C), 1300 ± 167 M⁻¹ s⁻¹.
For the compound 2-Abz-ETLFQ↓GPVY^(NO2)R [HRFRET], in test [2], the vmax came to 0.5348 ± 0.08 µM/s, the Km stood at 340 ± 49 µM and the “catalytic efficiency (kcat/KM)” value was determined as 3000 ± 285 M⁻¹ s⁻¹. Besides, in test [1], the “recognition of substrate by picornaviral and noroviral main proteases” value is reported as “only specific to rhinovirus M^pro”.
On to “2-Abz-NSTLQ↓SGY^(NO2)R [PEDV 2, truncated version of the PEDV FRET substrate]”, for which, in test [6], the k cat was determined as 2.6 ± 0.2 s⁻¹, the “K M” value was determined as 63 ± 11 µM, the Km amounted to 63 ± 11 µM and the vmax was found to be 0.266 ± 0.02 µM/s. In test [7], this compound had a vmax of 0.4516 µM/s.
2-Abz-STLAAGY^(NO2)R [(−) FRET]: in test [8], the “recognition of substrate by coronavirus M^pros” value was “None of the investigated M^pros recognize”. In test [9], the “cleavage by SARS-CoV-2 M^pro (LCMS analysis of cleavage products)” value was “no cleavage”.
Turning to 2-Abz-VVTLQ↓SGY^(NO2)R [Blanchard-VV], the Michaelis constant (Km) in test [10] was found to be 85 ± 15 µM; in test [6], 85 ± 10 µM; in [7], 371 ± 70 µM; in test [11], 64 ± 10 µM. The vmax in test [10] was determined as 0.3231 ± 0.04 µM/s; in [6] it was 0.360 ± 0.04 µM/s; in test [11], 0.2927 ± 0.02 µM/s.
Regarding 2-Abz-YNSTLQ↓SGY^(NO2)R [PEDV 1], in test [6], the k cat was determined as 3.3 ± 0.3 s⁻¹, the “K M” value was determined as 192 ± 26 µM, the Michaelis-Menten constant (Km) was determined as 192 ± 26 µM and the vmax came out at 0.330 ± 0.02 µM/s. Further, the vmax in [7] is 0.4075 µM/s.
With `C[S+](C)[O-]` [DMSO, dimethyl sulfoxide], the “decrease of enzyme activity” value in test [12] is given as 42–60%.
Take Tween-20: the “effect on catalytic activity” value in [12] is recorded as “do not significantly reduce catalytic activity”.

A word on the Km: it is the concentration of substrate that gives half-maximal velocity.

These data come from PMC11537199 (RSC Advances, 2024).
